Experimental findings from patent publication US10065990B2, “Cyclic peptide compound, and preparation method, pharmaceutical composition and use thereof” (HANGZHOU GUANYU BIO-MEDICAL CO., LTD, priority 2013, dated 2018) are described below.

For one experiment, the target named is T1, HDAC11 (Homo sapiens, UniProt Q96DB2).
T1 sequence (Q96DB2 1-347): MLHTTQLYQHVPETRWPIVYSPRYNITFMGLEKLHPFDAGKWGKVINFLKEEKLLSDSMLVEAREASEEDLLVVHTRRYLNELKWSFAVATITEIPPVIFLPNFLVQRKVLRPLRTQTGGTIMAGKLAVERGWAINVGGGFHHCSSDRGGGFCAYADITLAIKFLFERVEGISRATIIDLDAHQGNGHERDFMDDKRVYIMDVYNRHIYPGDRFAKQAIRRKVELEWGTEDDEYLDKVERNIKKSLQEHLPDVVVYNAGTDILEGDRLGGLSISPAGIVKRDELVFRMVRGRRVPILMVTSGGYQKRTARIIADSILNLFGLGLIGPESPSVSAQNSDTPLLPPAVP
As to the kind of experiment: HDAC biochemical activity measurement (fluorescent substrate deacetylation).

The subject of experiment [1] is MCF-7 (human breast cancer cells). In words: MTT cancer cell growth inhibition. In kind it is cell-based. The conditions noted are these: Homo sapiens, MCF7, 72 h, 72 hours incubation, read-out: GI50 MCF. The method in brief: (§1)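 GI50 values come from MTT viability: after 72 h compound exposure (final 10^−5–10^−10 M, three wells each) of cells plated overnight at 1500/well in 10% FBS medium, MTT was given for 4 h. The DMSO-solubilised formazan was then measured at 570 nm.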

The test system of experiment [2] is lncap (prostate cancer cells). In words: MTT cancer cell growth inhibition. In kind it is cell-based. The settings on record: Homo sapiens, LNCaP, 72 h, MTT, 72 hours incubation, read-out: GI50 lnca. The essentials:
as §1

For experiment [3], the system named is Huh-7 (human hepatoma cells). As to the kind of experiment: MTT cancer cell growth inhibition. It is filed as cell-based. The conditions noted are these: Homo sapiens, Huh-7, 72 h, MTT, 72 hours incubation, Huh-7 cells; read-out: GI50 Huh-7. The essentials: as §1
Experiment [4] relates to MOLT-4 (human acute lymphoblastic leukemia cells). As to the kind of experiment: MTT cancer cell growth inhibition. The conditions noted are these: Homo sapiens, MOLT-4, 72 h, MTT, 72 hours incubation, read-out: GI50 Mol. It is filed as cell-based. The method in brief:
as §1

Experiment [5] concerns U937 (human leukemia cells). As to the kind of experiment: MTT cancer cell growth inhibition. In kind it is cell-based. The settings on record: Homo sapiens, U-937, 72 h, MTT, 72 hours incubation, read-out: GI50 U93. The essentials: as §1
For experiment [6], the system named is HCC827 (human non-small cell lung cancer cells). As to the kind of experiment: MTT cancer cell growth inhibition. The conditions noted are these: Homo sapiens, HCC827, 72 h, MTT, 72 hours incubation, HCC827 cells; read-out: GI50 HCC827. It is filed as cell-based. The method in brief: as §1
The subject of experiment [7] is BGC-823 (human gastric cancer cells). As to the kind of experiment: MTT cancer cell growth inhibition. In kind it is cell-based. The settings on record: Homo sapiens, BGC-823, 72 h, MTT, 72 hours incubation, read-out: GI50 BG. The method in brief: as §1
For experiment [8], the system named is Bel-7402 (human hepatoma cells). As to the kind of experiment: MTT cancer cell growth inhibition. It is filed as cell-based. The conditions noted are these: Homo sapiens, Bel-7402, 72 h, MTT, 72 hours incubation, Bel-7402 cells; read-out: GI50 Bel-7402. The essentials: as §1
Another experiment addresses T2, HDAC8 (Homo sapiens, UniProt Q9BY41).
T2 sequence (Q9BY41 1-377): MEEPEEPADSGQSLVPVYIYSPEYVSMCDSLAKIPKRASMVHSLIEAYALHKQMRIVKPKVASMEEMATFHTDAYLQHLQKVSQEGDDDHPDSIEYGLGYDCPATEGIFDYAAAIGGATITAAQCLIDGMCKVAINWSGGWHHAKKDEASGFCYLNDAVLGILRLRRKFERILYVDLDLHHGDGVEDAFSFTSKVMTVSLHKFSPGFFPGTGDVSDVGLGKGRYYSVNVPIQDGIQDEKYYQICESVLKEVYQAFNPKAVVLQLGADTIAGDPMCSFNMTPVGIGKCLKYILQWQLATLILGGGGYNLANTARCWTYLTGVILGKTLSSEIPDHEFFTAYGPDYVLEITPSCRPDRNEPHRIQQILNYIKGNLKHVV
In words: HDAC biochemical activity measurement (fluorescent substrate deacetylation). The conditions noted are these: 37° C. 30 minutes.

[9] abbreviates: read-out: IC50 HDAC11, HDAC11, 37° C. 30 minutes.

What is called IC50 is the concentration that inhibits the measured activity by half. As usually defined, the GI50 is the concentration that inhibits growth by half.

Where two headings read alike, the source gives them in different places.

Procedure for HDAC8: The chemical activity of the compound is determined according to the degree of deacetylation inhibition of the HDAC enzyme. This experiment measured the degree of deacetylation related to tumor proliferation and metastasis of HDAC1, HDAC2, HDAC3, HDAC8, HDAC11 five subtypes HDAC enzymes. After the substrate containing an acetylated lysine side chain and HDAC enzyme are labeled with a fluorescent label, the fluorescent substrate is de acetyl. The fluorescent labeled substrate is cleaved by the enzyme, and the fluorescent substance is released, which generates 460 nm emission light under the excitation of 360 nm light.
HDAC substrate was diluted with reaction buffer to 200M (reaction concentration of 20M), the HDAC enzyme was diluted to the appropriate concentration, then added different concentrations of the test compounds and acted at 37° C. 30 minutes, and then added the same volume of 2-times concentration substrate developing solution (developer), incubated at room temperature for 15 minutes.

Consider `C/C=C1\NC(=O)c2cc(F)cc(n2)CNC(=O)C[C@@H](/C=C/CCSC(C)=O)OC(=O)[C@H](Cc2cccc3ccccc23)NC1=O` [Example 79], for which the values for the half-inhibitory concentration (IC50) on HDAC11 and on HDAC8 were 93 nM and 42 nM, respectively. Besides, the GI50 worked out at 20 nM in [1]; 30 nM in experiment [2]; 31 nM in [3]; 30 nM in [4]; 60 nM in [5]; 91 nM in experiment [6]. Besides, the concentration for 50% growth inhibition (GI50) in experiment [7] stood at 20 nM; in [8], 91 nM.
With `CC(=O)SCC/C=C/[C@@H]1CC(=O)NCc2cc(F)cc(n2)C(=O)NC(=C(C)C)C(=O)N[C@@H](C(C)C)C(=O)O1` [Compound 88], the IC50 on HDAC11 (setting [9]) is 94 nM; at HDAC8, 43 nM. For the same compound, the GI50 turned out to be 20 nM in experiment [1]; 30 nM in experiment [2]; 38 nM in experiment [3]; 30 nM in experiment [4]; 50 nM in experiment [5]; 67 nM in [6]. The GI50 in experiment [7] worked out at 30 nM; in [8], 67 nM.
As for `C=C1NC(=O)c2nc(ccc2F)CNC(=O)C[C@@H](/C=C/CCSC(C)=O)OC(=O)[C@H](C(C)C)NC1=O` [Compound 84], the figures for the IC50 on HDAC11 (setting [9]) and against HDAC8 were 91 nM and 29 nM, respectively. Moreover, the concentration for 50% growth inhibition (GI50) in [1] came out at 20 nM; in experiment [2], 20 nM; in [3], 28 nM; in experiment [4], 20 nM; in experiment [5], 50 nM; in experiment [6] it was 73 nM. For the same compound, the GI50 in experiment [7] was 10 nM; in [8], 73 nM.
As to `C/C=C1\NC(=O)c2cc(F)cc(n2)CNC(=O)C[C@@H](/C=C/CCSC(C)=O)OC(=O)[C@H](Cc2ccc(O)cc2)NC1=O` [Example 82], the half-inhibitory concentration (IC50) against HDAC11 came out at 92 nM; on HDAC8, 34 nM. Further, the GI50 in experiment [1] came out at 30 nM; in experiment [2], 20 nM; in [3], 29 nM; in experiment [4], 20 nM; in [5], 50 nM; in experiment [6], 81 nM. The figures for the 50% growth inhibitory concentration (GI50) in experiment [7] and in experiment [8] were 20 nM and 81 nM, respectively.
`C/C=C1\NC(=O)c2cccc(n2)CNC(=O)C[C@@H](/C=C/CCSC(=O)CCCCC)OC(=O)[C@H](C(C)C)NC1=O` [Compound 3]: the results for the IC50 against HDAC11 and against HDAC8 were 100 nM and 169 nM, respectively. The 50% growth inhibitory concentration (GI50) in experiment [1] is 30 nM; in experiment [3], 43 nM; in experiment [6] it was 33 nM; in experiment [7], 60 nM; in experiment [8], 97 nM.
For the compound `C/C=C1\NC(=O)c2cccc(n2)CNC(=O)C[C@@H](/C=C/CCSC(=O)CCCCCC)OC(=O)[C@H](C(C)C)NC1=O` [Compound 2], the IC50 amounted to 102 nM at HDAC11 (setting [9]) and 252 nM on HDAC8. In addition, the 50% growth inhibitory concentration (GI50) in [1] is 30 nM; in [3], 73 nM; in experiment [6], 42 nM; in experiment [7] it was 60 nM; in experiment [8], 83 nM.
As to `C/C=C1\NC(=O)c2ccc(SC)c(n2)CNC(=O)C[C@@H](/C=C/CCSC(=O)CCCCCCC)OC(=O)[C@H](CC)NC1=O` [Compound 173], the figures for the half-inhibitory concentration (IC50) at HDAC11 and against HDAC8 were 97 nM and 39 nM, respectively. Further, the GI50 was 20 nM in [1] (MCF-7 cells); 40 nM in experiment [2] (lncap cells); 71 nM in [3]; 30 nM in [4] (MOLT-4 cells); 10 nM in experiment [5] (U937 cells); 27 nM in experiment [6]. Moreover, the results for the concentration for 50% growth inhibition (GI50) in [7] (BGC-823 cells) and in [8] were 40 nM and 22 nM, respectively.
Turning to `C/C=C1\NC(=O)c2nc(ccc2F)CNC(=O)C[C@@H](/C=C/CCSC(C)=O)OC(=O)[C@H](Cc2cccc3ccccc23)NC1=O` [Compound 78], the IC50 on HDAC11 (setting [9]) turned out to be 94 nM; on HDAC8 it was 39 nM. Further, the concentration for 50% growth inhibition (GI50) was found to be 10 nM in experiment [1]; 20 nM in [2]; 29 nM in [3]; 20 nM in [4]; 60 nM in experiment [5]; 72 nM in [6]. In addition, the figures for the GI50 in experiment [7] and in experiment [8] were 60 nM and 72 nM, respectively.
Consider `C/C=C1\NC(=O)c2cc(C)cc(n2)CNC(=O)C[C@@H](/C=C/CCSC(C)=O)OC(=O)[C@H](Cc2ccccc2)NC1=O` [Example 67], for which the values for the IC50 at HDAC11 and on HDAC8 were 92 nM and 16 nM, respectively. The GI50 in experiment [1] was 20 nM; in experiment [2] it was 30 nM; in [3], 33 nM; in experiment [4], 30 nM; in experiment [5] it was 30 nM; in experiment [6], 84 nM. Further, the GI50 came out at 50 nM in experiment [7] and 84 nM in [8].
For `C/C=C1\NC(=O)c2ccc(F)c(n2)CNC(=O)C[C@@H](/C=C/CCSC(C)=O)OC(=O)[C@H](CCCCNC(=O)OCC2c3ccccc3-c3ccccc32)NC1=O` [Example 77], the 50% inhibitory concentration (IC50) at HDAC11 came to 88 nM; against HDAC8, 37 nM. Also, the GI50 is 30 nM in experiment [1]; 20 nM in experiment [2]; 25 nM in [3]; 20 nM in [4]; 30 nM in experiment [5]; 83 nM in [6]. The GI50 was found to be 50 nM in experiment [7] and 83 nM in experiment [8].
As for `C/C=C1\NC(=O)c2nc(ccc2F)CNC(=O)C[C@@H](/C=C/CCSC(C)=O)OC(=O)[C@H](Cc2ccc(O)cc2)NC1=O` [Compound 81], the IC50 came out at 95 nM at HDAC11 (setting [9]) and 26 nM against HDAC8. Moreover, the GI50 in experiment [1] is 30 nM; in experiment [2] it was 30 nM; in experiment [3], 34 nM; in experiment [4] it was 30 nM; in [5], 40 nM; in [6], 51 nM. The GI50 worked out at 30 nM in experiment [7] and 51 nM in experiment [8].
